Measurements reported in patent publication US12378268B2, “Heterocyclic THR-β receptor agonist compound and preparation method and use therefor” (Hepagene Therapeutics (HK) Limited, priority 2019, dated 2025).
Where two headings read alike, the source gives them in different places.

Experiments:
THR-β = molecular target: T1, THR-β (Homo sapiens, UniProt P10828); experiment: Test of the binding ability of the compound to TRβ (TRβ LBD/RXR, biotin-SRC2-2 co-activating peptide, 665/615 nm fluorescence ratio); assay type: biochemical
T1 construct: TRB LBD, GST purchased from Thermo Fisher; purchased Thermo Fisher PV4762
Description: 1. Main experimental materials and instruments:
Biotin-SRC2-2 co-activating peptide purchased from Sangon Biotech (Shanghai) Co., Ltd.
TRB LBD, GST purchased from Thermo Fisher (product No. PV4762)
Europium-conjugated anti-glutathione antibody purchased from Cisbio (product No. 61GSTKLB)
Streptavidin-D2 purchased from Cisbio (product No. 610SADAB)
(§1) 4.2 The activity percentage was calculated as follows: […]
(§2) RatioCompound: Average of the relative ratios of the compound wells of the embodiments
(§3) RatioPositive: Average of the relative ratios of all positive control wells.
(§4) RatioBlank: Average of the relative ratios of all negative control wells.
(§5) EC50 was calculated by fitting the relationship between activity (%) and compound logarithmic concentration with Graphpad 5.0 by a nonlinear regression method.
(§6) Y=Bottom+ (top-bottom)/(1+10^((LogEC50−X)*slope))
(§7) X: Compound logarithmic concentration Y: Percentage activity

THR-α = molecular target: T2, THR-α (Homo sapiens, UniProt P10827); experiment: Test of the binding ability of the compound to TRα (TRα LBD/RXRα, biotin-SRC2-2 co-activating peptide, 665/615 nm fluorescence ratio); assay type: biochemical
T2 construct: TR-a LBD, GST purchased from Thermo Fisher; purchased Thermo Fisher PV4762
Description: as §1, §2, §3, §4, §5, §6, §7

[1] = Drug metabolism experiment on prodrug in SD rats: plasma pharmacokinetic parameters; assay type: in vivo; details: plasma; for AUC(0-inf) / AUC(0-t) / Tmax / half-life / Cmax: male, Sprague-Dawley (SD), rat, po, 3 mg/kg
Description: (§8) Test 3: Drug metabolism experiment on prodrug in SD rats
(§9) In the experiment, […] of 12 male SD rats having similar body weights were selected and orally administered compound 9, compound 10, and the control drug VK2809 (the prodrug of MB07444, structured as shown below) at a dose of 3 mg/kg at a single time, respectively, and blood and liver samples were collected at different time points.
(§10) Solutions of compound 9/compound 10 and VK2809 with a final concentration of 0.6 mg/mL were respectively prepared, and the ratio between the solvents used for the preparation was PEG400: pure water =50:50 (v/v).
(§11) No randomization was performed. The weights of the animals were measured before administration, and healthy animals with similar body weights were selected for inclusion in the experiment. The oral dose was 3 mg/kg.
(§12) At least 0.2 mL of blood was collected from the tail vein or jugular vein, and heparin sodium was used as the anticoagulant.
15 min, 30 min, 1 h, 2 h, 4 h, 6 h, 8 h, 24 h after administration.
(§13) After being collected, a blood sample was placed in a marked ice-water bath centrifuge tube, plasma was quickly separated by centrifugation under centrifugation conditions: 3500 rpm, 10 minutes, and 4° C., and the plasma was stored under −40° C. for testing.
(§14) Q TRAP6500 mass spectrometer with ESI source was used to perform negative ion MRM scanning. An LC-MS/MS analysis method was used to detect the contents of compound 9, compound 10 and its active metabolite 1, VK2809 and its active metabolite MB07444 in the plasma and liver. The metabolic kinetics data analysis software WinNonlin 7.0 was used to calculate the concentration data of plasma, and the non-compartmental model (NCA) method was used to calculate the pharmacokinetic parameters.

[2] = Drug metabolism experiment on prodrug in SD rats: concentration in liver compared with blood; assay type: in vivo; details: for Kp at 1 h / Kp at 4 h / Kp at 8 h / Kp at 24 h / concentration at 1 h / concentration at 4 h / concentration at 8 h / concentration at 24 h: male, rat, po, 3 mg/kg, SD rats; for Kp at 1 h / Kp at 4 h / Kp at 8 h / Kp at 24 h: read-out: Liver-to-blood ratio
Description: as §8, §9, §10, §11, §12, §13
After the liver sample was collected, its surface was washed with normal saline, dried with medical gauze, placed in a labeled small ziplock bag, and stored under −40° C. for testing.
as §14
The parameters of concentration in the livers of the SD rats and a comparison with the concentration in plasma are shown in Table 3 below: […]

[3] = activity relative to positive control
[4] = Sprague-Dawley (SD), liver / plasma (heading prints blood), oral 3 mg/kg Compound 9
[5] = Sprague-Dawley (SD), liver / plasma (heading prints blood), oral 3 mg/kg Compound 10
[6] = Sprague-Dawley (SD), liver, oral 3 mg/kg Compound 9, read-out: Ct Liver
[7] = Sprague-Dawley (SD), liver, oral 3 mg/kg Compound 10, read-out: Ct Liver
[8] = Sprague-Dawley (SD), plasma (heading prints blood), oral 3 mg/kg Compound 10, read-out: Ct Blood
[9] = Sprague-Dawley, plasma, oral 3 mg/kg Compound 9, read-out: Ct Blood

T1 sequence (P10828 217-461 limits assumed, other chains not shown): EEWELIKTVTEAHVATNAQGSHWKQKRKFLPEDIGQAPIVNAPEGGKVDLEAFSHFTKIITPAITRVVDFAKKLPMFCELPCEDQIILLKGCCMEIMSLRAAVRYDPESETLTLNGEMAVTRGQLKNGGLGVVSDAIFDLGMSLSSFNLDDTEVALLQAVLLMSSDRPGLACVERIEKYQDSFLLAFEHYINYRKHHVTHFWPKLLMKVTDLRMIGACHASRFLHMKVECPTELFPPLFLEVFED
T1 sequence (P28702 whole entry partner, other chains not shown, the tested form may be a part): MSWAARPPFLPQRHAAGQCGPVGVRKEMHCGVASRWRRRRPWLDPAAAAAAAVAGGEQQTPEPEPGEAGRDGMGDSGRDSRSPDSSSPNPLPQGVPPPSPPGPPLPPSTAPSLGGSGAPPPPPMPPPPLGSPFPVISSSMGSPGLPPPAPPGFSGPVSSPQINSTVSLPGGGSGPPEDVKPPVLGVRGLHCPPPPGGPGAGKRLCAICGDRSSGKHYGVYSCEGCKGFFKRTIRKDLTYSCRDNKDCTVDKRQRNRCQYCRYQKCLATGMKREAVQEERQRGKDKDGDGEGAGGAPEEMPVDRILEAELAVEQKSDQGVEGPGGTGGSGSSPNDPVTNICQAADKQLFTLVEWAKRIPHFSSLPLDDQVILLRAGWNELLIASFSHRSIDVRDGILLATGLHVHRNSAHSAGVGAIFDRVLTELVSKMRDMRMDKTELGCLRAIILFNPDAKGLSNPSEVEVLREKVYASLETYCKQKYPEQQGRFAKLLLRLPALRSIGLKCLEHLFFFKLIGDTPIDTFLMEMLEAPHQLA
T2 sequence (P10827 163-410 isoform P10827-2 limits assumed, other chains not shown): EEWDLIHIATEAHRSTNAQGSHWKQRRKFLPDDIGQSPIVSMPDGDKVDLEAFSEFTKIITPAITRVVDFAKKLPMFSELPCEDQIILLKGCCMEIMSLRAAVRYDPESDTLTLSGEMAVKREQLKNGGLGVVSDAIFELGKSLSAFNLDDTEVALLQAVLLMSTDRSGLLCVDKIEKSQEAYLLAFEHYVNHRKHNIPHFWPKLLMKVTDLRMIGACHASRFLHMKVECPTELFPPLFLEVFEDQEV
T2 sequence (P19793 whole entry partner, other chains not shown, the tested form may be a part): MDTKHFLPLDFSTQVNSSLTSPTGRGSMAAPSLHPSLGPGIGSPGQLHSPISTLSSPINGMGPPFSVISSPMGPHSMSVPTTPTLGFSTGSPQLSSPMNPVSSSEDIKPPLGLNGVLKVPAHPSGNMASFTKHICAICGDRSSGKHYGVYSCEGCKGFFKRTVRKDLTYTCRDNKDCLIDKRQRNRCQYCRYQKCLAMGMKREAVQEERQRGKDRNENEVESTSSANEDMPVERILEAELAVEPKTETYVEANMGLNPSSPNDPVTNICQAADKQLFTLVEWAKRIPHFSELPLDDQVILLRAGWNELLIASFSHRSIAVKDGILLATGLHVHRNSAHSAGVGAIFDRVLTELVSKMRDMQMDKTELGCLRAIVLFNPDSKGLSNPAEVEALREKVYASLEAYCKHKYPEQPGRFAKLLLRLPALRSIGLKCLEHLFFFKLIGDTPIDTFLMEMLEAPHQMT

With Cc1cc(OCP(=O)(O)O)cc(C)c1Cc1ccc(O)c2c1CCC2(C)C [Compound 1, ((4-((7-hydroxy-1,1-dimethyl-2,3-dihydro-1H-indene-4-position)methyl)-3,5-dimethylphenoxy)methyl) phosphoric acid] the EC50 (THR-β) was 12 nM, the Emax (THR-β; [3]) was 104% and the “α/β selectivity (multiple)” value (THR-β; calculated after being standardized with T3) was 7.0 multiple. For the same molecule, the “activity for THR-β compared with MB07444” value (THR-β; in words) was “much higher than that of the contrast compound MB07444”, the EC50 (THR-α) was 41 nM and the Emax (THR-α; [3]) was 96.4%. The AUC(0-inf) ([1]; oral 3 mg/kg Compound 9) was 1350 ng·h/mL, the AUC(0-t) ([1]; oral 3 mg/kg Compound 9) was 1290 ng·h/mL and the Tmax ([1]; oral 3 mg/kg Compound 9) was 4.67 h. It also gave a half-life ([1]; oral 3 mg/kg Compound 9) of 4.82 h, an AUC(0-inf) ([1]; oral 3 mg/kg Compound 10) of 613 ng·h/mL and an AUC(0-t) ([1]; oral 3 mg/kg Compound 10) of 586 ng·h/mL. The Tmax ([1]; oral 3 mg/kg Compound 10) was 6.67 h, the half-life ([1]; oral 3 mg/kg Compound 10) was 4.59 h and the Cmax ([1]; oral 3 mg/kg Compound 9, read-out: Cmax) was 134 ng/mL. The Cmax ([1]; oral 3 mg/kg Compound 10, read-out: Cmax) was 45.1 ng/mL, the Kel ([1]; oral 3 mg/kg Compound 9) was 0.147 h⁻¹ and the Kel ([1]; oral 3 mg/kg Compound 10) was 0.154 h⁻¹. The “absolute concentration of active metabolite in the liver compared with control drug VK2809” value ([2]; after prodrug compound 9, in words) was “higher than that of the control drug VK2809”, the “liver-to-blood ratio compared with control drug” value ([2]; after prodrug compound 10, in words) was “significantly higher than that of the control drug” and the “absolute concentration of active metabolite in the liver compared with MB07444 from VK2809” value ([2]; after prodrug compound 10, same prodrug dose, in words) was “at least three times that of the active metabolite drug MB07444”. The Kp at 1 h [2, 4] was 20.8, the Kp at 1 h [2, 5] was 29.1 and the Kp at 4 h [2, 4] was 16.2. It also gave a Kp at 4 h [2, 5] of 20.6, a Kp at 8 h [2, 4] of 25.5 and a Kp at 8 h [2, 5] of 17.7. The Kp at 24 h [2, 4] was 47.1, the concentration at 1 h [2, 6] was 312 ng/g and the concentration at 1 h [2, 7] was 693 ng/g. For the same molecule, the concentration at 4 h [2, 6] was 1560 ng/g, the concentration at 4 h [2, 7] was 2580 ng/g and the concentration at 8 h [2, 6] was 762 ng/g. For the same molecule, the concentration at 8 h [2, 7] was 1710 ng/g, the concentration at 24 h [2, 6] was 396 ng/g and the concentration at 1 h [2, 8] was 5.4 ng/g. It also gave a concentration at 4 h [2, 8] of 28.4 ng/g, a concentration at 8 h [2, 8] of 43.6 ng/g and a concentration at 24 h [2, 8] of 3.83 ng/g. For the same molecule, the concentration at 24 h ([2]; Sprague-Dawley, liver, oral 3 mg/kg Compound 10, read-out: Ct Liver) was 431 ng/g, the Kp at 24 h ([2]; Sprague-Dawley, liver/plasma, oral 3 mg/kg Compound 10) was 121 and the concentration at 1 h [2, 9] was 15 ng/g. It also gave a concentration at 4 h [2, 9] of 96.3 ng/g, a concentration at 8 h [2, 9] of 29.9 ng/g and a concentration at 24 h [2, 9] of 8.4 ng/g.
